Experimental findings from US8637550B2, “Heteroaryl diamide compounds useful as MMP-13 inhibitors” (Boehringer Ingelheim International GmbH, priority 2008, dated 2014) are described below.

The target of the experiment is MMP-13 (Homo sapiens, UniProt P45452). The experiment in a line: EnzoLyte 520 Generic MMP Assay Kit, 5-FAM/QXL520 FRET peptide substrate. Type of experiment: biochemical. From the text:
The EnzoLyte™ 520 Generic MMP Assay Kit (AnaSpec Inc.) can detect the activity of several MMPs including MMP-1, 2, 3, 7, 8, 9, 13, and 14. This kit uses a 5-FAM/QXL™520 fluorescence resonance energy transfer (FRET) peptide as an MMP substrate.

For `CNC(=O)[C@@H](NC(=O)c1ccc(-c2ccc(-c3cccnc3)cn2)o1)C(C)C` [5-[3,3′]Bipyridinyl-6-yl-furan-2-carboxylic acid ((S)-2-methyl-1-methylcarbamoyl-propyl)-amide], the IC50 (commonly the concentration at which inhibition is half-maximal) was 140 nM.

Consider `CNC(=O)[C@@H](NC(=O)c1ccc(-c2ccc(C)cc2)o1)C1CCCCC1` [N-[(1S)-1-cyclohexyl-2-(methylamino)-2-oxoethyl]-5-(4-methylphenyl)furan-2-carboxamide], for which it took 290 nM to reach half-maximal inhibition (IC50).

Regarding `CNC(=O)[C@@H](NC(=O)c1ccc(-c2ccc(OCc3cc(C)n(C)n3)cn2)o1)C1CCCCC1` [N-[(1S)-1-cyclohexyl-2-(methylamino)-2-oxoethyl]-5-{5-[(1,5-dimethyl-1H-pyrazol-3-yl)methoxy]pyridin-2-yl}furan-2-carboxamide], the IC50 amounted to 4 nM.

Molecule `CNC(=O)[C@@H](NC(=O)c1ccc(-c2ccc(OCc3ccn(C)n3)cn2)o1)C1CCCCC1` [N-[(1S)-1-cyclohexyl-2-(methylamino)-2-oxoethyl]-5-{5-[(1-methyl-1H-pyrazol-3-yl)methoxy]pyridin-2-yl}furan-2-carboxamide] registered an IC50 of 25 nM.

As to `CNC(=O)[C@@H](NC(=O)c1ccc(-c2cccc(CNC(=O)c3cccc(C)n3)c2)o1)C1CCCCC1` [N-[3-(5-{[(1S)-1-cyclohcxyl-2-(methylamino)-2-oxoethyl]carbamoyl}furan-2-yl)benzyl]-6-methylpyridine-2-carboxamide], the concentration for half-maximal inhibition (IC50) worked out at 4 nM.

The molecule `CNC(=O)[C@@H](NC(=O)c1ccc(-c2cccc(CNC(=O)c3cc4ccccc4o3)c2)o1)C(C)C` [N-[3-(5-{[(1S)-2-methyl-1-(methylcarbamoyl)propyl]carbamoyl}-2-furyl)benzyl]-1-benzofuran-2-carboxamide] registered a half-maximal inhibitory concentration (IC50) of 8 nM.

As to `CNC(=O)[C@@H](NC(=O)c1ccc(-c2cccc(CNC(=O)C3CCCCO3)c2)o1)C(C)C` (stereo partly drawn) [N-[3-(5-{[(1S)-2-methyl-1-(methylcarbamoyl)propyl]carbamoyl}-2-furyl)benzyl]tetrahydro-2H-pyran-2-carboxamide], the IC50 came out at 101 nM.

In the case of `CNC(=O)[C@@H](NC(=O)c1ccc(-c2cccc(CNC(=O)[C@@H]3CCCN3C)c2)o1)C(C)C` [1-methyl-N-[3-(5-{[(1S)-2-methyl-1-(methylcarbamoyl)propyl]carbamoyl}-2-furyl)benzyl]-L-prolinamide], inhibition was half-maximal at 380 nM (IC50).

`CNC(=O)[C@@H](NC(=O)c1ccc(-c2cccc(CNC(=O)C3CCCCC3)c2)o1)C(C)C` [5-{3-[(Cyclohexanecarbonyl-amino)-methyl]-phenyl}-furan-2-carboxylic acid ((S)-2-methyl-1-methylcarbamoyl-propyl)-amide]: the midpoint of inhibition, the IC50, lay at 165 nM.

`CNC(=O)[C@@H](NC(=O)c1ccc(-c2cccc(CNC(=O)C3CCCNC3)c2)o1)C(C)C` (stereo partly drawn) [N-[3-(5-{[(1S)-2-methyl-1-(methylcarbamoyl)propyl]carbamoyl}-2-furyl)benzyl]piperidine-3-carboxamide]: the IC50 worked out at 430 nM.

As to `CNC(=O)[C@@H](NC(=O)c1ccc(-c2ccc(Cl)cc2)o1)C1CCCCC1` [5-(4-chlorophenyl)-N-[(1S)-1-cyclohexyl-2-(methylamino)-2-oxoethyl]furan-2-carboxamide], the IC50 was determined as 475 nM.

Regarding `CNC(=O)[C@@H](NC(=O)c1ccc(-c2cccc(CNC(=O)c3cccc(C)c3)c2)o1)C(C)C` [5-{3-[(3-Methyl-benzoylamino)-methyl]-phenyl}-furan-2-carboxylic acid ((S)-2-methyl-1-methylcarbamoyl-propyl)-amide], the IC50 worked out at 132 nM.

For `COC[C@H](C)NC(=O)[C@@H](NC(=O)c1ccc(-c2ccc(NC(=O)c3cccc(C)n3)cc2)o1)C1CCCCC1` [N-[4-(5-{[(1S)-1-cyclohexyl-2-{[(2S)-1-methoxypropan-2-yl]amino}-2-oxoethyl]carbamoyl}furan-2-yl)phenyl]-6-methylpyridine-2-carboxamide], 32 nM corresponded to half-maximal inhibition (IC50).

In turn, `CNC(=O)[C@@H](NC(=O)c1ccc(-c2cccc(CNC(=O)c3cc(Br)n(C)n3)c2)o1)C(C)C` [5-Bromo-1-methyl-1H-pyrazole-3-carboxylic acid 3-[5-((S)-2-methyl-1-methylcarbamoyl-propylcarbamoyl)-furan-2-yl]-benzylamide] yielded an IC50 of 13 nM.

`CC[C@H](C)[C@H](NC(=O)c1csc(-c2ccc(Cl)cc2)n1)C(=O)NC` [2-(4-Chloro-phenyl)-thiazole-4-carboxylic acid ((1S,2S)-2-methyl-1-methylcarbamoyl-butyl)-amide] had an IC50 of 380 nM.

With `CNC(=O)[C@@H](NC(=O)c1ccc(-c2cccc(CNC(=O)c3ccccn3)c2)o1)C1CCCCC1` [N-[3-(5-{[(1S)-1-cyclohexyl-2-(methylamino)-2-oxoethyl]carbamoyl}furan-2-yl)benzyl]pyridine-2-carboxamide], the concentration for half-maximal inhibition (IC50) was 9 nM.

`CNC(=O)[C@@H](NC(=O)c1ccc(-c2cccc(CNC(=O)C3CC3)c2)o1)C1CCCCC1` [N-[(1S)-1-cyclohexyl-2-(methylamino)-2-oxoethyl]-5-(3-{[(cyclopropylcarbonyl)amino]methyl}phenyl)furan-2-carboxamide] showed an IC50 of 397 nM.

Take `CNC(=O)[C@@H](NC(=O)c1ccc(-c2ccc(NC(=O)c3cn4c(C)cccc4n3)cc2)o1)C1CCCCC1` [N-[4-(5-{[(1S)-1-cyclohexyl-2-(methylamino)-2-oxoethyl]carbamoyl}furan-2-yl)phenyl]-5-methylimidazo[1,2-a]pyridine-2-carboxamide]: half-maximal inhibition (IC50) required 150 nM.

Regarding `CNC(=O)[C@@H](NC(=O)c1ccc(-c2cccc(CNC(=O)c3ccc(C#N)cc3)c2)o1)C(C)C` [5-{3-[(4-Cyano-benzoylamino)-methyl]-phenyl}-furan-2-carboxylic acid ((S)-2-methyl-1-methylcarbamoyl-propyl)-amide], half-maximal inhibition (IC50) was put at 185 nM.

For `CNC(=O)[C@@H](NC(=O)c1ccc(-c2ccc(NC(=O)c3ccnn3C)cc2)o1)C1CCCCC1` [N-[4-(5-{[(1S)-1-cyclohexyl-2-(methylamino)-2-oxoethyl]carbamoyl}furan-2-yl)phenyl]-1-methyl-1H-pyrazole-5-carboxamide], 99 nM corresponded to half-maximal inhibition (IC50).

For `CNC(=O)[C@@H](NC(=O)c1ccc(-c2ccc(-c3cccc(F)c3)cn2)o1)C(C)C` [5-[5-(3-Fluoro-phenyl)-pyridin-2-yl]-furan-2-carboxylic acid ((S)-2-methyl-1-methylcarbamoyl-propyl)-amide], the IC50 is 325 nM.

Molecule `CC[C@H](C)[C@H](NC(=O)c1ccc(-c2ccc(Cl)cc2)o1)C(=O)NC` [5-(4-Chloro-phenyl)-furan-2-carboxylic acid ((1S,2S)-2-methyl-1-methylcarbamoyl-butyl)-amide] registered an IC50 of 300 nM.

For `CNC(=O)[C@@H](NC(=O)c1ccc(-c2cccc(CNC(=O)c3cn4c(C)cccc4n3)c2)o1)C1CCCCC1` [N-[3-(5-{[(1S)-1-cyclohexyl-2-(methylamino)-2-oxoethyl]carbamoyl}furan-2-yl)benzyl]-5-methylimidazo[1,2-a]pyridine-2-carboxamide], the IC50 was 110 nM.

Take `CNC(=O)[C@@H](NC(=O)c1ccc(-c2cccc(CNC(=O)c3cccc(N(C)C)c3)c2)o1)C(C)C` [5-{3-[(3-Dimethylamino-benzoylamino)-methyl]-phenyl}-furan-2-carboxylic acid ((S)-2-methyl-1-methylcarbamoyl-propyl)-amide]: half-maximal inhibition (IC50) was put at 213 nM.

Consider `COCC(C)NC(=O)[C@@H](NC(=O)c1ccc(-c2ccc(NC(=O)c3cc4ccccc4o3)cc2)o1)C1CCCCC1` (stereo partly drawn) [N-{4-[5-({(1S)-1-cyclohexyl-2-[(1-methoxypropan-2-yl)amino]-2-oxoethyl}carbamoyl)furan-2-yl]phenyl}-1-benzofuran-2-carboxamide], for which the concentration for half-maximal inhibition (IC50) stood at 355 nM.

In turn, `CNC(=O)[C@@H](NC(=O)c1ccc(-c2ccc(CNC(=O)C3CC3)cc2)o1)C1CCCCC1` [N-[(1S)-1-cyclohexyl-2-(methylamino)-2-oxoethyl]-5-(4-{[(cyclopropylcarbonyl)amino]methyl}phenyl)furan-2-carboxamide] returned an IC50 of 423 nM.

Consider `CCOc1ccc(-c2ccc(C(=O)N[C@H](C(=O)NC)C3CCCCC3)o2)cc1` [N-[(1S)-1-cyclohexyl-2-(methylamino)-2-oxoethyl]-5-(4-ethoxyphenyl)furan-2-carboxamide], for which inhibition was half-maximal at 270 nM (IC50).

`CNC(=O)[C@@H](NC(=O)c1ccc(-c2ccc(NC(=O)OC)cc2)o1)C1CCCCC1` [Methyl [4-(5-{[(1S)-1-cyclohexyl-2-(methylamino)-2-oxoethyl]carbamoyl}furan-2-yl)phenyl]carbamate] showed a 50% inhibitory concentration (IC50) of 225 nM.

`CNC(=O)[C@@H](NC(=O)c1ccc(-c2cccc(CNC(=O)c3ccc(F)c(C(F)(F)F)c3)c2)o1)C(C)C` [5-{3-[(3-Trifluoromethyl-4-fluoro-benzoylamino)-methyl]-phenyl}-furan-2-carboxylic acid ((S)-2-methyl-1-methylcarbamoyl-propyl)-amide] displayed an IC50 of 215 nM.

`CNC(=O)[C@@H](NC(=O)c1ccc(-c2cccc(CNC(=O)c3ccc(OC)cc3)c2)o1)C(C)C` [5-{3-[(4-Methoxy-benzoylamino)-methyl]-phenyl}-furan-2-carboxylic acid ((S)-2-methyl-1-methylcarbamoyl-propyl)-amide]: the IC50 is 155 nM.

Molecule `CNC(=O)[C@@H](NC(=O)c1ccc(-c2ccc(NC(=O)c3cn4ccccc4n3)cc2)o1)C1CCCCC1` [N-[4-(5-{[(1S)-1-cyclohexyl-2-(methylamino)-2-oxoethyl]carbamoyl}furan-2-yl)phenyl]imidazo[1,2-a]pyridine-2-carboxamide] showed an IC50 of 109 nM.

As for `CNC(=O)[C@@H](NC(=O)c1ccc(-c2cccc(CN)c2)o1)C1CCOCC1` [5-[3-(Aminomethyl)phenyl]-N-[(1S)-2-(methylamino)-2-oxo-1-(tetrahydro-2H-pyran-4-yl)ethyl]-2-furamide], the IC50 is 415 nM.

Regarding `Cc1cccc(C(=O)Nc2ccc(-c3ccc(C(=O)N[C@H](C(=O)NC[C@@H](C)O)C4CCCCC4)o3)cc2)n1` [N-[4-(5-{[(1S)-1-cyclohexyl-2-{[(2R)-2-hydroxypropyl]amino}-2-oxoethyl]carbamoyl}furan-2-yl)phenyl]-6-methylpyridine-2-carboxamide], the IC50 came out at 22 nM.
